According to patent US11307205B2, “Non-radioactive cytotoxicity assays” (University of Southern California, priority 2016, dated 2022):

Tests used:
Assay type in all cases: cell-based
293FT cells = assay: Matador assay, Digitonin-induced death of transiently transfected 293FT cells
Experimental: The 293FT cells were transfected in a 24-well plate with various expression plasmids (500 ng/well) using calcium phosphate. Approximately, 18 hours post-transfection, the cells were either left untreated or treated with 30 μg/ml Digitonin to induce cell death, followed by the detection of luminescence as described under luciferase assays.
293FT cells were transfected with pLenti-CBGRluc construct in a […]. 72 hours post-transfection, cells were trypsinized and plated in 6-well plates. For induction of cell death, cells in some wells were treated with Digitonin (50 μg/mL final concentration). CBGRluc activity was determined by adding assay buffer (1 mM D-Luciferin, 25 mM glycylclycine, 15 mM potassium phosphate, 15 mM MgSO4, 4 mM EGTA, 2 mM ATP, and 1 mM DTT) in a well mode. The assay buffer with substrate was added at 1:1 (v/v) ratio.
The MLuc7 cDNA also carried M43L and M110L substitutions. […] The mammalian expression vectors encoding the non-secretory forms of the above luciferase cDNAs were transiently transfected into 293FT cells by calcium phosphate co-precipitation method. […] 6 wells were treated with Digitonin and 6 wells were left untreated. Luciferase activity was measured by addition of coelentrazine containing assay buffer directly to each well.
The indicated luciferase constructs in either retroviral or lentiviral vectors were transiently transfected into 293FT cells by calcium phosphate co-precipitation method. Approximately 18 hours post-transfection, cells were treated with Digitonin for 90 minutes or left untreated (control). […] Essentially a similar procedure was used with a construct encoding Lucia-Luc.
293FT cells were transiently transfected with the above construct or left untransfected. Approximately 18 hours post-transfection, cells were treated for 90 min with Digitonin (final concentration 30 μg/ml) or left untreated. After the 90 minute incubation, 200 μl supernatant was collected from each well in a 1.5 ml tubes. The tubes were spun down at 1500 RPM for 5 minutes.
We next examined if the Matador cytotoxicity assay developed by us is limited to only luciferase proteins or can be adapted to any other protein that is not endogenously expressed by the target cells. For this purpose, we transiently transfected 293FT cells by calcium phosphate co-precipitation method with an expression plasmid encoding enhanced green fluorescent protein (GFP) or HA-epitope tagged-mCherry. Approximately 24 post-transfection, the transfected cells were either left untreated or treated with Digitonin to induce cell death. The cells were collected in tubes and centrifuged at 2,000 rpm for 5 min. Cell supernatant was collected in a new set of tubes and cell pellet were washed with cold phosphate-buffered saline twice and lysed in lysis buffer containing 20 mM Tris-HCl, pH 8.0, 500 mM NaCl, 0.25% Triton X-100, 1 mM EDTA, 10 mM β-glycophosphate, 10 mMNaF, 1 mM DTT, 1× protease inhibitor mixture (Roche Molecular Biochemicals) at 4° C. for 30 min. After incubation, the mixture was pippetted five or six times to disperse the cells followed by centrifugation at 14,000 rpm at 4° C. for 10 min. The cell lysates were collected as whole cell extracts, and protein concentration was determined by using Bio-Rad protein assay reagent. 30 μl of cell supernatant or 30 μg of whole cell extracts were heated in the presence of SDS-PAGE sample buffer and loaded on 10% SDS-PAGE gel followed by transferring to nitrocellulose membranes. These membranes were incubated with primary antibodies against specified proteins in Tris-buffered-saline with Tween 20 followed by incubation with secondary antibody (IRDye 800CW conjugates of goat anti-rabbit IgG; Li-Cor) and development with Odyssey Infrared Imaging System CLx (Li-Cor Biosciences). The secondary antibody was used at a 1:10,000 dilution.

Nalm6 cells = assay: Dual reporter Matador assay, Digitonin-induced death of Nalm6 cells; settings: Nalm6 cells expressing both GLuc and FfLuc; Digitonin 30 μg/ml, 90 minutes
Experimental: Briefly, 20000 cells in 20 μl media were plated in each well of a 384 well plate followed by addition of 20 μl of Digitonin (final concentration 30 μg/ml) or media alone (20 μl) and incubated for 90 minutes.

[1] = test system: primary leukemia blast cells (Chrt3); assay: Matador assay on primary leukemia blast cells expressing GLuc; settings: two additional primary leukemia samples; Digitonin; present tense
Experimental: To examine if this assay can be also used to measure death of primary cells, leukemic blasts were isolated from a de-identified leukemia patient using Ficoll-Hypaque gradient centrifugation and then transduced with pLenti-EF1a-Pac-T2A-Gluc-B07 (SEQ ID NO: 94) lentiviral vector to generate primary leukemia blast cells (Chrt3) expressing the non-secretory form of GLuc cDNA. Briefly, 1 million primary leukemic blasts were cultured in XVIVO medium in a 6-well plate in the presence of GLuc lentiviral supernatant and polybrene (5 μg/ml) and centrifuged at 2,800 rpm at 32° C. for 2 hours followed by incubation of cells at 37° C. for 24 hours in XVIVO medium. To measure the killing of Chrt3-GLuc cells, the transduced cells were plated at a density of 20,000 cells per well in 30 μl of medium in triplicate in a white 384 well plate and co-cultured with the effector cells for 4 hours at an E:T ratio of 0.125:1. Cell death was assayed by the single-step homogenous GLuc assay by injecting 0.5×CTZ assay buffer in well mode. […] Two additional primary leukemia samples are infected with GLuc encoding lentiviral vector and cell death is induced by treatment with Digitonin.

C[C@@H]1CC[C@@]2(OC1)O[C@H]1[C@@H](O)[C@H]3[C@@H]4CC[C@H]5C[C@@H](O[C@@H]6O[C@H](CO)[C@H](O[C@@H]7O[C@H](CO)[C@@H](O)[C@H](O[C@@H]8OC[C@@H](O)[C@H](O)[C@H]8O)[C@H]7O[C@@H]7O[C@H](CO)[C@H](O)[C@H](O[C@@H]8O[C@H](CO)[C@@H](O)[C@H](O)[C@H]8O)[C@H]7O)[C@H](O)[C@H]6O)[C@H](O)C[C@]5(C)[C@H]4CC[C@]3(C)[C@H]1[C@@H]2C [Digitonin]
luciferase activity (293FT cells; FfLuc construct, Digitonin 30 μg/ml, 90 min, supernatant): increase in luciferase activity
fluorescence in cell supernatant (293FT cells; GFP and mCherry-HA transfected, Digitonin): significant increase in fluorescence
GFP release in the supernatant fraction (Western blotting) (293FT cells; GFP transfected, Digitonin): increase in GFP release in the supernatant fraction
mCherry release in the supernatant fraction (Western blotting) (293FT cells; HA-mCherry transfected, Digitonin): increase in mCherry release in the supernatant fraction
LucPPe luciferase activity (293FT cells; LucPPe-146-1H2 transient transfection, Digitonin): increase in LucPPe luciferase activity
Luc activity (293FT cells; MYR-GGS-GLuc construct, Digitonin 30 μg/ml, 90 min, supernatant): increase in Luc activity
increase in alkaline phosphatase activity in the cell supernatants (293FT cells; constructs encoding human embryonal alkaline phosphatase lacking the secretory signal, Digitonin 90 min): greater than 3 fold
alkaline phosphatase activity (293FT cells; empty vector or plasmid encoding the secretory form of human embryonal alkaline phosphatase, Digitonin 90 min): little or no increase
CBGRluc activity (293FT cells; pLenti-CBGRluc transfected, Digitonin 50 μg/mL): increase in CBGRluc activity
luciferase activity in the cell-free supernatants (293FT cells; transfected with GLuc, NLuc, MLuc7, TLuc16, Paluc1, Htluc1, Loluc, RLuc, Lucia-Luc, Digitonin 90 minutes): increase in luciferase activity
luciferase activity (293FT cells; transfected with HtLuc, LoLuc, MLuc7, Digitonin): increase in luciferase activity
FfLuc and GLuc activities (Nalm6 cells): increase in both FfLuc and GLuc activities
GLuc activity [1]: increase in GLuc activity
